Tests used:
HeLa cancer cells = assay: Transmission electron microscopy of autophagosomes/autolysosomes; type: cell-based, human; conditions: treated HeLa cancer cells
From the text: N-desmethyldauricine treated HeLa cells were fixed overnight with 2.5% glutaraldehyde followed by a buffer wash. Samples were post-fixed in 1% OsO4 and embedded in Araldite 502. Ultrathin sections were double stained with uranyl acetate and lead citrate, and analyzed by Philips CM 100 transmission electron microscope at a voltage of 80 kV.

LC3 = assay: Western blot of autophagic marker LC3 conversion and autophagic flux; type: cell-based, human; conditions: HeLa
Description: (§1) After N-desmethyldauricine treatments, HeLa cancer cells were harvested and lysed in RIPA buffer (Cell Signaling Technologies Inc. (Beverly, Mass.). The cell lysates were then resolved by SDS-PAGE. After electrophoresis, the proteins from SDS-PAGE were transferred to nitrocellulose membrane which was then blocked with 5% non-fat dried milk for 60 minutes. The membrane was then incubated with LC3 primary antibodies (1:1000) in TBST overnight at 4° C. After that, the membrane was further incubated with HRP-conjugated secondary antibodies for 60 minutes. Finally, protein bands were visualized by using the ECL Western Blotting Detection Reagents (Invitrogen, Paisley, Scotland, UK).
as §1, with “treatments in the presence or absence of lysosomal inhibitor 10·M of E64d/Pepstatin A,” for “treatments,”, “Inc., Beverly,” for “Inc. (Beverly,”, “Finally, protein bands were visualized by using the ECL Western Blotting Detection Reagents (Invitrogen, Paisley, Scotland, UK).” left out

[1] = system: wild type Atg7 cells (Atg7+/+) mouse embryonic fibroblasts; assay: GFP-LC3 puncta in Atg7 wild-type MEFs; type: cell-based
Description: GFP-LC3 puncta formation was quantified as previously described^15. In brief, both Atg7 wild-type and deficient mouse embryonic fibroblasts (MEFs) grown on coverslips in a 6-well plate were treated with indicated concentrations of N-desmethyldauricine. Both Atg7 wild-type and deficient mouse embryonic fibroblasts were then fixed in 4% paraformaldehyde for 20 minutes at room temperature and then rinsed with PBS. Slides were mounted with FluorSave™ mounting media (Calbiochem, San Diego, Calif.) and examined by fluorescence microscopy. The number of GFP-positive cells with GFP-LC3 puncta formation was examined under the Nikon ECLIPSE 80i microscope. Representative images were captured with CCD digital camera Spot RT3™ (Diagnostic Instruments, Inc., Melville, N.Y.). To quantify for autophagy, the percentage of cells with punctate GFP-LC3 fluorescence was calculated by counting the number of the cells with punctate GFP-LC3 fluorescence in GFP-positive cells. A minimum of 150 cells from 3 randomly selected fields was scored.

Atg7+/+ cells = assay: Annexin V flow cytometry cell death, Atg7 wild-type MEFs; type: cell-based, mouse; conditions: 10 μM, 24 h
Description: Cell viability was measured using an annexin V staining kit (BD Biosciences, San Jose, Calif., USA). Briefly, Atg7 wild-type (Atg7^+/+ or Atg7-wt) and Atg7 deficient (Atg7^−/− or Atg7-ko) mouse embryonic fibroblasts (MEFs) were treated with the 10 μM N-desmethyldauricine for 24 h. Cells were then harvested and analysed by multiparametric flow cytometry using FITC-Annexin V and Propidium iodide staining (BD Biosciences, San Jose, Calif., USA) according to the manufacturer's instructions. Flow cytometry was then carried out using a FACSCalibur flow cytometer (BD Biosciences, San Jose, Calif., USA). Data acquisition and analysis was performed with CellQuest (BD Biosciences, San Jose, Calif., USA). Data were obtained from three independent experiments.

[2] = system: EGFP-tagged mutant huntingtin (Q23, Q55, Q74); assay: Removal of mutant huntingtin by immunoblotting; type: cell-based; conditions: PC 12, 7.5 μM, 24 hours
Description: PC 12 cells were transfected transiently with EGFP-HDQ23/55/74 (Q23, Q55, Q74) plasmids for 24 hours using Lipofectamine Plus LTX reagent (Invitrogen) according to the manufacturer's protocol. The transfected cells were then treated with N-desmethyldauricine for 24 hours. The removal of mutant huntingtin, (Q23, Q55, Q74) were then quantitated by immunoblotting with antibody against EGFP.

Compound: COc1cc2c(cc1OC)[C@@H](Cc1ccc(Oc3cc(C[C@H]4NCCc5cc(OC)c(OC)cc54)ccc3O)cc1)N(C)CC2 [N-desmethyldauricine]
- autophagosomes/autolysosomes by electron microscopy (HeLa cancer cells): found
- autophagic marker LC3-II conversion (LC3; western blot): induced
- LC3-II conversion in the presence of lysosomal inhibitor (LC3; with E64d/Pepstatin A): further enhance
- GFP-LC3 puncta formation [1]: induce GFP-LC3 puncta formation
- cell death (Atg7+/+ cells): markedly induce cell death
- clearance of overexpressed EGFP-tagged mutant huntingtin [2]: enhance the clearance
